Laboratory results taken from publication PMC3401907, “Cellular Uptakes, Biostabilities and Anti-miR-210 Activities of Chiral Arginine-PNAs in Leukaemic K562 Cells” (Chembiochem, 2012).

Columns and labels:
[1] = test system: DNA1 (full-match antiparallel DNA); test: Melting temperature (Tm) of PNA:DNA duplexes, full-match DNA; assay type: binding; details: UV absorbance at 260 nm, strand concentration 5 μM; for Tm, DNA1 in urea (5 M): PBS buffer pH 7 (NaCl 100 mM, NaH2PO4 10 mM, EDTA 0.1 mM) with urea 5 M; for Tm, DNA1 in water: PBS buffer pH 7, no urea, 18 to 90 °C at 1 °C/min
Procedure: (§1) Measurements of Tm values: The Tm values were determined with a Lambda Bio 20 spectrophotometer and a Peltier PTP6 temperature programmer. Thermal denaturation profiles were measured by monitoring the absorbance at 260 nm from 18 to 90 °C with a heating rate of 1 °C min^−1 and recording every 0.1 °C. […]

[2] = test system: DNA2 (mismatched DNA, G→T); test: Melting temperature (Tm) of PNA:DNA duplexes, single-mismatch DNA; assay type: binding; details: single mismatch; UV absorbance at 260 nm, PBS buffer pH 7 with urea 5 M, strand concentration 5 μM
Excerpt: (§2) Sequence selectivity is a very important issue in view of the use of PNAs in cellular systems, because partial hybridisation might occur with other unrelated miRNAs or, most importantly, with mRNA targets. We analysed the sequence selectivities of our PNAs with stricter models (DNA2 and RNA2) involving single base mismatches (G→T or G→U) located in the middle of the target sequences. In each case the sequence selectivity was confirmed by significant lowering of the melting temperature. The ranges of ΔTm due to the presence of these single mismatches were 8–21 °C for DNA, with the maximum drop in the case of PNA4 and the minimum observed in that of PNA6. For the latter it should be considered that the mismatch was facing the last chiral monomer, preventing the cooperative effect observed in the case of 2D-modifed highly constrained PNA.[22]
(§3) Measurements of Tm values: The Tm values were determined with a Lambda Bio 20 spectrophotometer and a Peltier PTP6 temperature programmer. Thermal denaturation profiles were measured by monitoring the absorbance at 260 nm from 18 to 90 °C with a heating rate of 1 °C min^−1 and recording every 0.1 °C. Measurement conditions: [PNA]=[DNA] or [RNA]=5 μM in PBS buffer [pH 7.0, NaCl (100 mM), NaH2PO4⋅H2O (10 mM), EDTA (0.1 mM)] with urea (5 M).

[3] = test system: RNA1 (target region of miR-210); test: Melting temperature (Tm) of PNA:RNA duplexes, full-match RNA; assay type: binding; details: UV absorbance at 260 nm, strand concentration 5 μM; for Tm, RNA1 in water: PBS buffer pH 7, no urea; for Tm, RNA1 in urea (5 M): PBS buffer pH 7 with urea 5 M
Procedure: as §1

[4] = test system: RNA2 (mismatched RNA, G→U); test: Melting temperature (Tm) of PNA:RNA duplexes, single-mismatch RNA; assay type: binding; details: UV absorbance at 260 nm, PBS buffer pH 7 with urea 5 M, strand concentration 5 μM
Excerpt: as §2, §3

miR-210 [5] = test: miR-210 content by RT-qPCR analysis; assay type: cell-based, human; details: K562 cells, 24 h; for inhibition of miR-210 bioavailability (miR-210 content): PNA 2 μM, Figure 5 A and B, relative to pept-1
Procedure: K562 cells were treated with 15 nM mithramycin in the presence of a PNA (2 μM), and after 24 h RNA was isolated and miR-210 was assayed by RT-qPCR analysis. This type of test has been used to evaluate miR content in many studies because it allows the free-miR content to be evaluated. […] Figure 5 A and B reports the obtained data, showing that inhibition of miR bioavailability was induced both with the modified PNA and with the peptide-conjugated one, whereas in the case of PNA1 it was unchanged. […] This might be related to inhibition of pre-miR maturation or to unavailability of the miR to the qRT-PCR analysis due to strong complexation with the PNA. In either case the bioavailability of the miR for targeting other genes should be reduced.
Transfection procedures: Anti-miR-210 PNAs were directly added to the cellular medium to reach the indicated final concentrations. K562 cells were cultured in 24-well plates starting from the initial density of 30 000 cells per mL. MTH was administrated together with anti-miR PNAs.
RNA extraction: Cells were isolated by centrifugation at 1500 rpm for 10 min at 4 °C, washed in PBS and lysed in Tri-reagent (Sigma–Aldrich) according to the manufacturer's instructions. The isolated RNA was washed once with cold ethanol (75 %), dried and dissolved in ultrapure nuclease-free water.
Real-time quantitative PCR: For microRNA quantification with real-time RT-PCR reagents, the primers and probes were obtained from Applied Biosystems. Reverse transcriptase (RT) reactions were performed with a TaqMan MicroRNA Reverse Transcription Kit (Applied Biosystems) for hsa-miR-210, hsa-miR-10a, hsa-miR-93, hsa-miR-99b, hsa-miR-126, hsa-miR-149, hsa-miR-424, hsa-miR-483-5p, hsa-miR-625, hsa-let-7c and the iQTM5 real-time PCR System Instrument (Bio-Rad). Relative expression was calculated by the comparative cycle threshold method and U6 microRNA was used as reference gene to normalise all RNA samples, because it is constant in the assayed samples by miR-profiling and quantitative RT-PCR analysis as previously reported.[25]

γ-globin gene expression = γ-globin gene expression by RT-qPCR; assay type: cell-based, human; details: mithramycin-treated (15 nM) K562 cells, PNA 2 μM single administration, 72 h, n=3
Procedure: The strong inhibition of miR-210 by PNA2 and PNA4 might thus result in appreciable reduction of γ-globin gene expression.
Figure 6 A) Effects of pept-1, PNA1, PNA2 and PNA4 molecules (each 2 μM) on γ-globin content in K562 cell cultures for 72 h with MTH (15 nM). Data are reported as arbitrary units relative to cells treated with pept-1 and MTH (average±SD, n=3, *: p<0.05, **: p<0.01). B), C) Effects of treatment (72 h) with pept-1, PNA1, PNA2 and PNA4 molecules on K562 cells induced to erythroid differentiation by MTH (15 nM): B) summary of three independent experiments, C) a representative experiment showing staining of the cells with benzidine.
The nucleotide sequences used for real-time qPCR analysis of γ-globin mRNAs were γ-globin forward primer (5′-TGGCAA GAAGGT GCTGAC TTC-3′), γ-globin reverse primer (5′-TCACTC AGCTGG GCAAAG G-3′) and γ-globin probe (5′-FAM-TGGGAG ATGCCA TAAAGC ACCTGG-TAMRA-3′).[25] The relative expression was calculated by the comparative cycle threshold method with endogenous control human 18S rRNA as reference genes.[25]

miR-210 [6] = details: cited from earlier work; for anti-miR activity: K562 cells, previously demonstrated
Excerpt: (§4) The first step necessary to achieve anti-miR activity in cells is effective cellular uptake.

K562 cells [7] = details: cited from earlier work
Procedure: In order to determine the distributions of PNAs within target cells, analysis was performed with a fluorescence microscope. […] Low uptake was also found by fluorescence microscopy with PNA1.[25]

K562 cells [8] = test: Mithramycin-induced erythroid differentiation (benzidine-positive cells); assay type: cell-based, human; details: MTH 15 nM, PNA 2 μM, benzidine-positive cells after 5 days of induction, three independent experiments
Procedure: In order to evaluate effects on mithramycin-induced cellular differentiation, K562 cells were treated with MTH in the presence of pept-1, PNA1, PNA2 and PNA4 (each 2 μM). The proportions of benzidine-positive cells were determined after 5 days of induction.
Human cell lines and culture conditions: Human leukaemia K562 cells were cultured under humidified CO2 (5 %)/air in RPMI 1640 medium (Sigma) supplemented with foetal bovine serum (FBS, 10 %, Analitical de Mori, Milan, Italy), penicillin (50 units mL^−1) and streptomycin (50 μg mL^−1).[26] Mithramycin (MTH) was from Sigma. Stock solutions of MTH (100 μM) were stored at −20 °C in the dark and diluted immediately before use. Treatment of K562 cells with MTH was carried out by addition of the appropriate drug concentrations at the beginning of the cultures (cells were seeded at 30 000 mL^−1). The medium was not changed during the induction period. To determine antiproliferative activity, cell growth was studied by determining the cell number per mL with a Z1 Coulter Counter (Coulter Electronics, Hialeah, FL, USA). Erythroid differentiated K562 cells containing haemoglobin were detected by specific reaction with a benzidine/hydrogen peroxide solution as reported elsewhere.[26] The final concentration of benzidine was 0.2 % in glacial acetic acid (5 M) and H2O2 (10 %).

K562 cells [9] = details: previously demonstrated; cited from earlier work
Excerpt: as §4

Row | Substance | Tm, DNA1 in urea (5 M) [1] [°C] | Tm, DNA1 in water [1] [°C] | Tm, DNA2 in urea (5 M) [2] [°C] | Tm, RNA1 in water [3] [°C] | Tm, RNA1 in urea (5 M) [3] [°C] | Tm, RNA2 in urea (5 M) [4] [°C] | inhibition of miR-210 bioavailability (miR-210 content) (miR-210 [5]) | effect on γ-globin gene expression (γ-globin gene expression) | anti-miR activity (miR-210 [6]) | uptake by fluorescence microscopy (K562 cells [7]) | miR-210 inhibition upon treatment with mithramycin (miR-210 [5]; PNA 2 μM with MTH 15 nM, relative to pept-1 and MTH) | effect on MTH-induced erythroid differentiation (K562 cells [8]) | internalisation within K562 cells (K562 cells [9]) | selectivity of miR-210 inhibition versus other miRs (miR-210 [6]; previously found)
1 | H-CCGCTGTCACACGCACAG-NH2 [PNA1, unmodified achiral "naked" 18-mer PNA targeted against miR-210, reference compound] | 70 | 85 | 58 | 88 | 77 | 62 | unchanged | did not show appreciable effects | no activity | Low uptake |  |  |  | 
2 | H-R8CCGCTGTCACACGCACAG-NH2 [PNA2, 18-mer anti-miR-210 PNA conjugated with octaarginine (R8) peptide, reference compound] | 80 | >90 | 68 | >90 | 88 | 73 | Stronger inhibition | inhibited γ-globin gene expression | pronounced anti-miR activity |  | best results | able to inhibit erythroid differentiation | efficiently internalised | inhibit miR-210 selectively
